# Laboratory results from ChEMBL document CHEMBL6096738, “Optimization of Single Relaxin B-Chain Peptide Leads to the Identification of R2R01, a Potent, Long-Acting RXFP1 Agonist for Cardiovascular and Renal Diseases” (J Med Chem, 2025).
# Starred links: 1 amine or outer side, 2 acyl side, 3 side chain; linkers in the order of their positions; H or OH if unused. Non-standard residues stand in square brackets, D forms with d. Residues, ends and D or L forms follow the SMILES beside them. Groups on a side chain read outwards from the residue. *: point of attachment. X2 = CCCCCCCCCCCCCCCC(=O)N[C@@H](CCC(=O)N[C@@H](CCC(=O)N[C@@H](CCC(=O)NCCCOCCOCCOCCCNC(=O)CCC(=O)NCCCOCCOCCOCCCNC(=O)CCC(=O)NCCCOCCOCCOCCCN*)C(=O)O)C(=O)O)C(=O)O; X1 = CCCCCCCCCCCCCCCC(=O)N[C@@H](CCC(=O)N[C@@H](CCC(=O)N[C@@H](CCC(=O)NCCCOCCOCCOCCCNC(=O)CCC(=O)NCCCOCCOCCOCCCN*)C(=O)O)C(=O)O)C(=O)O; γGlu = O=C(O)[C@H](CCC(=O)[*:2])N[*:1]; Stearoyl = CCCCCCCCCCCCCCCCCC(=O)*; Suc = O=C(CCC(=O)[*:2])[*:1]; αMeK = C[C@](N)(CCCCN)C(=O)O; Nle = CCCC[C@H](N)C(=O)O; AEEA = NCCOCCOCC(=O)O; Aib = CC(C)(N)C(=O)O
# Legend:
# [1] = molecular target: T1, Relaxin receptor 1 (Homo sapiens) (UniProt Q9HBX9); experiment: Agonist activity at human RXFP1 expressed in 2%HSA treated human OVCAR-5 cells assessed as intracellular cAMP accumulation by measuring maximal efficacy incubated for 30 mins with 2% HSA pretreated compound by HTRF assay relative to control; format: functional, cell-based; conditions: filed as agonist
# T1 sequence (whole entry): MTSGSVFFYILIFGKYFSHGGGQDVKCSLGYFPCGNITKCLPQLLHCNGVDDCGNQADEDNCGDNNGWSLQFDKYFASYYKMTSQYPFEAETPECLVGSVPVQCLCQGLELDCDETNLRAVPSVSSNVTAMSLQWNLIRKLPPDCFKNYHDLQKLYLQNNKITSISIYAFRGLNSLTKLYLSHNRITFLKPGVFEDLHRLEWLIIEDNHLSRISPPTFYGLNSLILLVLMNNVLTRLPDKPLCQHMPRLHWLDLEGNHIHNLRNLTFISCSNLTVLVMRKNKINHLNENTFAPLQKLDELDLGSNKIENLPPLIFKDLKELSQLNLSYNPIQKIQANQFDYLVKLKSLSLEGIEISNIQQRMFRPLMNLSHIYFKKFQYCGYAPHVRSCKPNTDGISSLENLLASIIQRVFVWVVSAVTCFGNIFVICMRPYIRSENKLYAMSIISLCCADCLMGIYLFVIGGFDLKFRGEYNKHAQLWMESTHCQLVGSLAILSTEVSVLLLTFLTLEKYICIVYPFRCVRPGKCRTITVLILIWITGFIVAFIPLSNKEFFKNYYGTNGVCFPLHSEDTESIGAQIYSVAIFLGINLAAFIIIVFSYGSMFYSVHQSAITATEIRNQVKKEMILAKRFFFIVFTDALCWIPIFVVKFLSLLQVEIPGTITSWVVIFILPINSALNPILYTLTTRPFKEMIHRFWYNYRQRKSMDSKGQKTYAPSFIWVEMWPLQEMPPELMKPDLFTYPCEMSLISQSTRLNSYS
# [2] = molecular target: T1, Relaxin receptor 1 (Homo sapiens); experiment: Agonist activity at human RXFP1 expressed in human OVCAR-5 cells assessed as intracellular cAMP accumulation by measuring maximal efficacy incubated for 30 mins by HTRF assay relative to control; format: functional, cell-based; conditions: filed as agonist
# [3] = Drug metabolism in male Sprague-Dawley rat assessed as fatty acid chain oxidation mediated M+16 metabolite formation by measuring metabolite to parent compound AUC ratio at 1 mg/kg, iv measured after 198 hrs by LC-HRMS analysis; format: ADME, organism-based; conditions: in vivo
# [4] = Drug metabolism in male Beagle dog assessed as fatty acid chain oxidation mediated M+16 metabolite formation by measuring metabolite to parent compound AUC ratio at 1 mg/kg, iv measured after 198 hrs by LC-HRMS analysis; format: ADME, organism-based, Canis lupus familiaris; conditions: in vivo
# [5] = Bioavailability in female Gottingen pig at 1 mg/kg, sc measured after 198 hrs by LC-HRMS analysis; format: ADME, organism-based, Sus scrofa; conditions: in vivo
# [6] = Induction of mast cell degranulation in human LAD2 cells assessed as beta-hexosaminidase release by measuring 4-methylumbelliferyl N-acetyl-beta-D-glucosaminide hydrolysis incubated for 30 mins by plate reader analysis; format: toxicity, cell-based; conditions: probe 4-methylumbelliferyl N-acetyl-beta-D-glucosaminide
# [7] = Induction of mast cell degranulation in human LAD2 cells assessed as beta-hexosaminidase release by measuring maximal efficacy of 4-methylumbelliferyl N-acetyl-beta-D-glucosaminide hydrolysis at 33 uM incubated for 30 mins by plate reader analysis relative to control; format: toxicity, cell-based; conditions: probe 4-methylumbelliferyl N-acetyl-beta-D-glucosaminide
# [8] = Half-life in male Sprague-Dawley rat at 1 mg/kg, iv measured after 198 hrs by LC-HRMS analysis; format: ADME, organism-based; conditions: in vivo
# Relaxin receptor 1 [9] = molecular target: T2, Relaxin receptor 1 (Homo sapiens, UniProt Q9HBX9); experiment: Agonist activity at human RXFP1 expressed in 2%HSA treated human OVCAR-5 cells assessed as intracellular cAMP accumulation incubated for 30 mins with 2% HSA pretreated compound by HTRF assay; format: functional, cell-based
# T2 sequence (Q9HBX9 whole entry): T1 sequence (whole entry)
# Rattus norvegicus [10] = experiment: Chronotropic effect in telemetered male Sprague-Dawley rat assessed as increase in heart rate administered subcutaneously and measured after 48 hrs; format: functional, organism-based; conditions: dose 0.1-1 mg/kg, route sc
# Rattus norvegicus [11] = experiment: Chronotropic effect in pithed male Sprague-Dawley rat assessed as increase in heart rate at 0.3 mg/kg, iv measured after 60 mins relative to control; format: functional; conditions: 1 h
# [12] = Half-life in female Gottingen pig at 1 mg/kg, iv measured after 198 hrs by LC-HRMS analysis; format: ADME, organism-based, Sus scrofa; conditions: in vivo
# [13] = Half-life in male Beagle dog at 1 mg/kg, iv measured after 198 hrs by LC-HRMS analysis; format: ADME, organism-based, Canis lupus familiaris; conditions: in vivo
# [14] = Drug metabolism in female Gottingen pig assessed as fatty acid chain oxidation mediated M+16 metabolite formation by measuring metabolite to parent compound AUC ratio at 1 mg/kg, iv measured after 198 hrs by LC-HRMS analysis; format: ADME, organism-based, Sus scrofa; conditions: in vivo
# [15] = Drug metabolism in female Gottingen pig assessed as fatty acid chain oxidation mediated M+16 metabolite formation by measuring metabolite to parent compound AUC ratio at 1 mg/kg, sc measured after 198 hrs by LC-HRMS analysis; format: ADME, organism-based, Sus scrofa; conditions: in vivo
# Relaxin receptor 1 [16] = molecular target: T2, Relaxin receptor 1; experiment: Agonist activity at human RXFP1 expressed in human OVCAR-5 cells assessed as intracellular cAMP accumulation incubated for 30 mins by HTRF assay; format: functional, cell-based
# [17] = Drug metabolism in male Beagle dog assessed as fatty acid chain oxidation mediated M+16 metabolite formation by measuring metabolite to parent compound AUC ratio at 3 mg/kg, sc measured after 198 hrs by LC-HRMS analysis; format: ADME, organism-based, Canis lupus familiaris; conditions: in vivo
# [18] = Bioavailability in male Sprague-Dawley rat at 3 mg/kg, sc measured after 198 hrs by LC-HRMS analysis; format: ADME, organism-based; conditions: in vivo
# Rattus norvegicus [19] = experiment: Chronotropic effect in pithed male Sprague-Dawley rat assessed as increase in heart rate at 1 mg/kg, iv measured after 60 mins relative to control; format: functional
# [20] = AUC (0 to 24 hrs) in male Sprague-Dawley rat at 1 mg/kg, iv measured after 198 hrs by LC-HRMS analysis; format: ADME, organism-based; conditions: in vivo
# [21] = Induction of immune response in human CD4+ T cells assessed as increase in auto reactive T cells at 3 uM preincubated with monocyte-derived immature dendritic cells followed by T cell addition and further stimulated on day 7 and 14 with autologous dendritic cells and measured after 5 days post last stimulation by IFNgamma-Elispot analysis; format: toxicity, cell-based; conditions: 120 h
# [22] = Drug metabolism in male Sprague-Dawley rat assessed as fatty acid chain oxidation mediated M+16 metabolite formation by measuring metabolite to parent compound AUC ratio at 3 mg/kg, sc measured after 198 hrs by LC-HRMS analysis; format: ADME, organism-based; conditions: in vivo
# [23] = Cmax in male Sprague-Dawley rat at 3 mg/kg, sc measured after 198 hrs by LC-HRMS analysis; format: ADME, organism-based; conditions: in vivo
Emax [1],Emax [2],Ratio AUC [3],Ratio AUC [4],bioavailability [5],half-life [8],EC50 (Relaxin receptor 1 [9]),half-life [12],half-life [13],Ratio AUC [14],EC50 (Relaxin receptor 1 [16]),bioavailability [18],AUC(0-t) at 198 h [20],Cmax [23],SMILES,EC50 at 30 min [6],"Emax at 0.5 h, 33 µM [7]",Activity (Rattus norvegicus [11]),other results
86%,97%,< 0.01,0.11,74%,7.8 h,0.0265 µM,22.3 h,8.8 h,0.25,–,–,–,–,CCCCCCCCCCCCCCCC(=O)N[C@@H](CCC(=O)N[C@@H](CCC(=O)N[C@@H](CCC(=O)NCCCOCCOCCOCCCNC(=O)CCC(=O)NCCCOCCOCCOCCCNC(=O)CCC(=O)NCCCOCCOCCOCCCNC(=O)CCC(=O)NCCCC[C@H](NC(=O)CNC(=O)[C@H](CCC(=O)O)NC(=O)C(C)(C)NC(=O)C(C)(C)NC(=O)[C@@H](NC(=O)[C@H](CCCCNC(C)=O)NC(=O)[C@H](C)NC(=O)[C@H](CCCNC(=N)N)NC(=O)[C@@H](NC(=O)[C@H](CCCCN)NC(=O)[C@H](CCC(=O)O)NC(=O)[C@H](CCCNC(=N)N)NC(=O)CNC(=O)[C@H](CCC(=O)O)NC(=O)[C@H](CC(C)C)NC(C)=O)C(C)C)[C@@H](C)CC)C(=O)N[C@@H](CO)C(=O)N[C@H](C(=O)N[C@@H](Cc1ccccc1)C(=O)N[C@@H](CO)C(=O)N[C@@](C)(CCCCN)C(=O)N[C@@H](CCCNC(=N)N)C(=O)N[C@@H](C)C(=O)N[C@@H](CCCCNC(C)=O)C(N)=O)[C@@H](C)O)C(=O)O)C(=O)O)C(=O)O (Ac-LEGREKVRAK(Ac)I[Aib][Aib]EGK([Suc-X2])STFS[αMeK]RAK(Ac)-NH2),> 33 µM,48%,40.3%,Activity (Rattus norvegicus [10]): Dose-dependent-effect
89%,84%,< 0.1,19.4,–,3.9 h,0.0184 µM,7 h,3.4 h,4,0.0002 µM,74%,9.4 µM·h,1500 nM,CCCCCCCCCCCCCCCCCC(=O)N[C@@H](CCC(=O)N[C@@H](CCC(=O)N[C@@H](CCC(=O)NCCOCCOCC(=O)NCCOCCOCC(=O)NCCOCCOCC(=O)NCCCC[C@H](NC(=O)[C@H](CCCCNC(C)=O)NC(=O)[C@H](CCCCN)NC(=O)[C@H](CCCNC(=N)N)NC(=O)C(C)(C)NC(=O)[C@H](CO)NC(=O)[C@H](Cc1c[nH]c2ccccc12)NC(=O)[C@@H](NC(=O)[C@H](CO)NC(=O)[C@H](CCCC)NC(=O)CNC(=O)[C@H](CCC(=O)O)NC(=O)C(C)(C)NC(=O)C(C)(C)NC(=O)[C@@H](NC(=O)[C@H](CCCCNC(C)=O)NC(=O)[C@H](C)NC(=O)[C@H](CCCNC(=N)N)NC(=O)[C@@H](NC(=O)[C@H](CCCCN)NC(=O)[C@H](CCC(=O)O)NC(=O)[C@H](CCCNC(=N)N)NC(=O)CNC(=O)[C@H](CCC(=O)O)NC(=O)[C@H](CC(C)C)NC(C)=O)C(C)C)[C@@H](C)CC)[C@@H](C)O)C(N)=O)C(=O)O)C(=O)O)C(=O)O (Ac-LEGREKVRAK(Ac)I[Aib][Aib]EG[Nle]STWS[Aib]RKK(Ac)K([AEEA-AEEA-AEEA-γGlu-γGlu-γGlu-Stearoyl])-NH2),1.26 µM,59.6%,–,Ratio AUC [15]: 4; Ratio AUC [17]: 6.6; Activity (Rattus norvegicus [19]): 29%; Activity [21]: Non-toxic; Ratio AUC [22]: 0.104
81%,95%,–,0.33,87%,8.7 h,0.145 µM,27.2 h,9.2 h,0.32,0.00128 µM,69%,19.5 µM·h,2000 nM,CCCCCCCCCCCCCCCC(=O)N[C@@H](CCC(=O)N[C@@H](CCC(=O)N[C@@H](CCC(=O)NCCCOCCOCCOCCCNC(=O)CCC(=O)NCCCOCCOCCOCCCNC(=O)CCC(=O)NCCCC[C@H](NC(=O)CNC(=O)[C@H](CCC(=O)O)NC(=O)C(C)(C)NC(=O)C(C)(C)NC(=O)[C@@H](NC(=O)[C@H](CCCCNC(C)=O)NC(=O)[C@H](C)NC(=O)[C@H](CCCNC(=N)N)NC(=O)[C@@H](NC(=O)[C@H](CCCCN)NC(=O)[C@H](CCC(=O)O)NC(=O)[C@H](CCCNC(=N)N)NC(=O)CNC(=O)[C@H](CCC(=O)O)NC(=O)[C@H](CC(C)C)NC(C)=O)C(C)C)[C@@H](C)CC)C(=O)N[C@@H](CO)C(=O)N[C@H](C(=O)N[C@@H](Cc1c[nH]c2ccccc12)C(=O)N[C@@H](CO)C(=O)NC(C)(C)C(=O)N[C@@H](CCCNC(=N)N)C(=O)N[C@@H](CCCCN)C(=O)N[C@@H](CCCCNC(C)=O)C(N)=O)[C@@H](C)O)C(=O)O)C(=O)O)C(=O)O (Ac-LEGREKVRAK(Ac)I[Aib][Aib]EGK([Suc-X1])STWS[Aib]RKK(Ac)-NH2),5.5 µM,58%,31.4%,–
